Measured values published in PubChem BioAssay AID2060489 (Molecular Pharmacology Branch, DTP, NCI, 2025).
Each block holds one compound with its values, some of them ahead of it.

Tested on: 922993-354-T-J3-PDC complex spheroids, viability
Assay: Anticancer human tumor 922993-354-T-J3-PDC patient-derived endometrial carcinoma cell line growth inhibition [GQUAD]
Conditions: for IC50: curve of first compound; for viability, T/C: stronger effect = lower value
Method in brief: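 Viability of tumor cells grown as complex spheroids with endothelial and stromal cells, exposed to drug combinations. Top concentration at or near clinical Cmax (else 10 microM), diluted in half-log increments.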

[1] = second compound 0.0316 µM, first compound 0.0316 µM
[2] = second compound 0.0316 µM, first compound 0.316 µM
[3] = second compound 0.1 µM, first compound 0.0316 µM
[4] = second compound 0.1 µM, first compound 0.316 µM
[5] = second compound 0.316 µM, first compound 0.0316 µM
[6] = second compound 0.316 µM, first compound 0.316 µM
[7] = second compound 1 µM, first compound 0.0316 µM
[8] = second compound 1 µM, first compound 0.316 µM
[9] = second compound 3.16 µM, first compound 0.0316 µM
[10] = second compound 3.16 µM, first compound 0.316 µM
[11] = second compound 10 µM, first compound 0.0316 µM
[12] = second compound 10 µM, first compound 0.316 µM
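Further: spheroids exposed to compounds for seven days.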
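Wherever viability, T/C is given: 100% = DMSO vehicle control viability.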

IC50 (second compound 0.0316 µM): 11.3 nM | IC50 (second compound 0.1 µM): 5.27 nM | IC50 (second compound 0.316 µM): < 0.999 nM | IC50 (second compound 1 µM): 5.12 nM | IC50 (second compound 3.16 µM): < 0.999 nM | IC50 (second compound 10 µM): < 0.999 nM
SMILES: CCc1c2c(nc3ccc(O)cc13)-c1cc3c(c(=O)n1C2)COC(=O)[C@]3(O)CC + Cc1cnc(CNC(=O)c2c(=O)c3ccc(N4CCCN(C)CC4)nc3n3c2sc2ccccc23)cn1
viability, T/C (second compound 0.0316 µM, first compound 0.000999 µM): 85.3% | viability, T/C (second compound 0.0316 µM, first compound 0.00316 µM): 74.5% | viability, T/C (second compound 0.0316 µM, first compound 0.00999 µM): 54.5% | viability, T/C [1]: 25.2% | viability, T/C (second compound 0.0316 µM, first compound 0.0999 µM): 24.4% | viability, T/C [2]: 31.6% | viability, T/C (second compound 0.1 µM, first compound 0.000999 µM): 66.8% | viability, T/C (second compound 0.1 µM, first compound 0.00316 µM): 63.4% | viability, T/C (second compound 0.1 µM, first compound 0.00999 µM): 33.2% | viability, T/C [3]: 23.4% | viability, T/C (second compound 0.1 µM, first compound 0.0999 µM): 29.4% | viability, T/C [4]: 33.4% | viability, T/C (second compound 0.316 µM, first compound 0.000999 µM): 53.9% | viability, T/C (second compound 0.316 µM, first compound 0.00316 µM): 43.3% | viability, T/C (second compound 0.316 µM, first compound 0.00999 µM): 32.2% | viability, T/C [5]: 26.3% | viability, T/C (second compound 0.316 µM, first compound 0.0999 µM): 45.5% | viability, T/C [6]: 52.1% | viability, T/C (second compound 1 µM, first compound 0.000999 µM): 48.7% | viability, T/C (second compound 1 µM, first compound 0.00316 µM): 60.6% | viability, T/C (second compound 1 µM, first compound 0.00999 µM): 43.5% | viability, T/C [7]: 37% | viability, T/C (second compound 1 µM, first compound 0.0999 µM): 42.1% | viability, T/C [8]: 38.1% | viability, T/C (second compound 3.16 µM, first compound 0.000999 µM): 44.7% | viability, T/C (second compound 3.16 µM, first compound 0.00316 µM): 44% | viability, T/C (second compound 3.16 µM, first compound 0.00999 µM): 46.5% | viability, T/C [9]: 49% | viability, T/C (second compound 3.16 µM, first compound 0.0999 µM): 47.4% | viability, T/C [10]: 38.8% | viability, T/C (second compound 10 µM, first compound 0.000999 µM): 37.6% | viability, T/C (second compound 10 µM, first compound 0.00316 µM): 49.3% | viability, T/C (second compound 10 µM, first compound 0.00999 µM): 45.3% | viability, T/C [11]: 44.1% | viability, T/C (second compound 10 µM, first compound 0.0999 µM): 45% | viability, T/C [12]: 26%

IC50 (second compound 0.0316 µM): > 10000 nM | IC50 (second compound 0.1 µM): > 10000 nM | IC50 (second compound 0.316 µM): < 31.6 nM | IC50 (second compound 1 µM): < 31.6 nM | IC50 (second compound 3.16 µM): < 31.6 nM | IC50 (second compound 10 µM): < 31.6 nM
SMILES: COc1cc(C2c3cc4c(cc3C(OC3OC5COC(C)OC5C(O)C3O)C3COC(=O)C23)OCO4)cc(OC)c1O (centres undefined) + Cc1cnc(CNC(=O)c2c(=O)c3ccc(N4CCCN(C)CC4)nc3n3c2sc2ccccc23)cn1
viability, T/C [1]: 82.3% | viability, T/C (second compound 0.0316 µM, first compound 0.1 µM): 60% | viability, T/C [2]: 60.5% | viability, T/C (second compound 0.0316 µM, first compound 1 µM): 74.5% | viability, T/C (second compound 0.0316 µM, first compound 3.16 µM): 50.9% | viability, T/C (second compound 0.0316 µM, first compound 10 µM): 49.9% | viability, T/C [3]: 62.3% | viability, T/C (second compound 0.1 µM, first compound 0.1 µM): 59.1% | viability, T/C [4]: 53.8% | viability, T/C (second compound 0.1 µM, first compound 1 µM): 63.6% | viability, T/C (second compound 0.1 µM, first compound 3.16 µM): 62.8% | viability, T/C (second compound 0.1 µM, first compound 10 µM): 39.9% | viability, T/C [5]: 44.1% | viability, T/C (second compound 0.316 µM, first compound 0.1 µM): 53.2% | viability, T/C [6]: 38.6% | viability, T/C (second compound 0.316 µM, first compound 1 µM): 49.7% | viability, T/C (second compound 0.316 µM, first compound 3.16 µM): 41.6% | viability, T/C (second compound 0.316 µM, first compound 10 µM): 34.3% | viability, T/C [7]: 46.8% | viability, T/C (second compound 1 µM, first compound 0.1 µM): 39.9% | viability, T/C [8]: 49.6% | viability, T/C (second compound 1 µM, first compound 1 µM): 36.1% | viability, T/C (second compound 1 µM, first compound 3.16 µM): 36% | viability, T/C (second compound 1 µM, first compound 10 µM): 43.4% | viability, T/C [9]: 40.6% | viability, T/C (second compound 3.16 µM, first compound 0.1 µM): 47% | viability, T/C [10]: 39.1% | viability, T/C (second compound 3.16 µM, first compound 1 µM): 46.6% | viability, T/C (second compound 3.16 µM, first compound 3.16 µM): 52.4% | viability, T/C (second compound 3.16 µM, first compound 10 µM): 48.2% | viability, T/C [11]: 47.9% | viability, T/C (second compound 10 µM, first compound 0.1 µM): 50.3% | viability, T/C [12]: 45.4% | viability, T/C (second compound 10 µM, first compound 1 µM): 38.2% | viability, T/C (second compound 10 µM, first compound 3.16 µM): 43.4% | viability, T/C (second compound 10 µM, first compound 10 µM): 41%
